For the assay, the target named is Gag-Pol polyprotein (Human immunodeficiency virus type 1 group M subtype B (isolate HXB2)) (UniProt P04585). The assay is described as follows: RNase H inhibition, HIV 1 Gag Pol polyprotein, FRET biochemical assay, screening (AID 372). As to conditions: HIV-1 RT RNase H, FRET RNA/DNA substrate fluorescence.

Active and inactive are the calls of the source. Rule as the data show it: active = inhibition above about 50%; inactive = the rest.

Broadly, the IC50 is the concentration at which inhibition is half-maximal. Consider `O=c1[nH]c(=S)n(-c2ccccc2F)c(O)c1C=C1C=CC=N1`, for which the IC50 was 2.3 µM.

Take `O=C1/C(=C/c2ccco2)C(=O)N(c2ccc(Br)cc2)C(=S)N1c1ccccc1`: the IC50 is 10.2 µM.

Consider `O=C(NC(=S)Nc1cc(-c2nc3ccccc3s2)ccc1Cl)c1ccc(F)cc1`, for which the IC50 was 9.1 µM.

Regarding `O=C1C(Cl)=C/C(=N\S(=O)(=O)c2ccc(Cl)cc2)C(Cl)=C1Cl`, the IC50 is 4 µM.

For the compound `O=C1NC(=O)/C(=C/c2ccc(-c3ccc(O)c(C(=O)O)c3)o2)S1`, the IC50 is 4.2 µM.

As for `NC(=O)c1c(NC(=O)CCc2ccccc2)sc2c1CCCCCC2`, the IC50 is 1.5 µM.

In the case of `Cc1cc(C)c2c(=O)[nH]c(SCC(=O)c3ccc(O)c(O)c3)nc2n1`, the IC50 was 3.4 µM.

For `Cc1sc(NC(=O)Cc2ccccc2)c(C(N)=O)c1C`, the IC50 is 8 µM.

`CC1=C(C)CC(C(=O)Nc2ccc(N3C(=O)c4ccccc4C3=O)cc2)C(C(=O)O)C1` (centres undefined): the IC50 was 100 µM.

Take `Cc1cc(Br)ccc1N1C(=O)/C(=C/c2ccco2)C(=O)NC1=S`: the IC50 was 7 µM.

Take `O=C1C=CC(=O)C(c2cc(Cl)ccc2Cl)=C1`: the IC50 is 2.1 µM.

Regarding `Cc1ccc(C(=O)NC(=S)Nc2ccc(-c3nc4ccccc4s3)cc2)cc1[N+](=O)[O-]`, the IC50 is 20 µM.

Regarding `CCC(=O)Nc1sc2c(c1C(=O)Nc1ccc(OC)cc1)CCCCC2`, the IC50 result was “inactive”.

For `Cc1cccc(NCC(=O)N/N=C\c2c(Br)cc(Br)c(O)c2Br)c1`, the IC50 was 62 µM.

`NC(=O)c1c(NC(=O)COc2ccccc2)sc2c1CCCCC2`: the IC50 entry is “inactive”.

For the compound `O=C(Oc1ccccc1)Oc1c(Cl)cc2oc(=O)sc2c1Cl`, the IC50 was 19 µM.

For the compound `Cc1ccc(C(=O)Nc2sc(C)c(C)c2C(N)=O)cc1`, the IC50 was 0.6 µM.

Regarding `Cc1sc2nc(-c3ccc([N+](=O)[O-])cc3)[nH]c(=O)c2c1C`, the IC50 is 0.55 µM.

`O=C1C(Cl)=C(NC(=O)c2ccccc2)C(=O)C(Cl)=C1NC(=O)c1ccccc1`: the IC50 is 4 µM.

Regarding `Cc1ccc(NC(=O)c2c(NC(=O)c3ccccc3F)sc3c2CCCCC3)cc1`, the IC50 result was “inactive”.

Turning to `COc1ccc(C(=O)NC(=S)Nc2ccc3nn(-c4ccc(C)c(Cl)c4)nc3c2)cc1[N+](=O)[O-]`, the IC50 was 17 µM.

As to `O=C(Cc1ccccc1Cl)c1ccc(O)c(O)c1O`, the IC50 was 2 µM.

On to `Cc1sc(NC(=O)c2cccc([N+](=O)[O-])c2)c(C(N)=O)c1C`, for which the IC50 entry is “inactive”.

As to `O=C1NC(=S)N(c2ccc(Cl)cc2)C(=O)/C1=C/c1ccc(Br)o1`, the IC50 was 1.7 µM.

Turning to `Cc1ccc(S(=O)(=O)N=C2C=C(Cl)C(=O)C(Br)=C2)cc1`, the IC50 was 3.1 µM.

Turning to `Nc1ccc(S(=O)(=O)O)c2cccc(O)c12`, the IC50 is 10 µM.

With `O=C(Nc1ccc(N2CCN(C(=O)c3ccccc3)CC2)cc1)c1ccc(-c2ccccc2)cc1`, the IC50 was 4.2 µM.

Consider `COc1ccc(N2C(=O)/C(=C\c3cn(CC(=O)Nc4ccccc4)c4ccccc34)C(=O)NC2=S)cc1`, for which the IC50 was 5 µM.

For `CC1=NN(c2ccc(S(N)(=O)=O)cc2)C(=O)/C1=C/c1ccc(-c2ccc(Cl)cc2Cl)o1`, the IC50 was 3.8 µM.

For the compound `O=C1NC(=S)N(c2ccc(Cl)cc2)C(=O)/C1=C\C=C\c1ccccc1[N+](=O)[O-]`, the IC50 is 3.3 µM.

Regarding `O=C1C(Cl)=C/C(=N\S(=O)(=O)c2ccccc2)C(Cl)=C1Cl`, the IC50 is 3.8 µM.

In the case of `Cc1ccc(C)n1-c1ccc(O)c(C(=O)O)c1`, the IC50 is 9 µM.

For the compound `O=C(N/N=C/c1ccccc1Cl)c1cc(O)c(O)c(O)c1`, the IC50 is 0.6 µM.

For `Cc1c(Cl)ccc2c1NC(C(=O)O)C1CC=CC21` (centres undefined), the IC50 is 22 µM.

Turning to `Cc1nn(CC(=O)Nc2sc(C)c(C)c2C(N)=O)c(C)c1[N+](=O)[O-]`, the IC50 is 4.3 µM.

Take `COc1cc(/C=N\c2sc3c(c2C(=O)NCc2ccccc2)CCCC3)cc(Cl)c1O`: the IC50 is 2.1 µM.

For `O=C1NN(c2ccc(I)cc2)C(=O)/C1=C\c1ccc(O)c(O)c1`, the IC50 was 10.8 µM.

Consider `O=C1NC(=S)N(c2ccccc2F)C(=O)/C1=C/c1ccc(I)o1`, for which the IC50 was 6.7 µM.

Turning to `COc1cccc2cc(C(N)=O)c(=O)oc12`, the IC50 was 4 µM.

Consider `Cc1ccc(NC(=O)c2c(NC(=O)C(F)(F)F)sc(-c3ccccc3)c2C)c(C)c1`, for which the IC50 is 2.8 µM.

With `Cc1sc(NC(=O)c2ccc(Br)o2)c(C(N)=O)c1C`, the IC50 is 5.5 µM.

`O=C1NC(=S)S/C1=C/c1cccc(OCc2ccc(Cl)c(Cl)c2)c1`: the IC50 is 4 µM.

Turning to `O=C1C(Cl)=CC(=NS(=O)(=O)c2ccccc2)C=C1Cl`, the IC50 was 3.1 µM.

For `O=C1NC(=S)N(c2cccc(Cl)c2)C(=O)/C1=C\C=C\c1ccco1`, the IC50 is 7.7 µM.

As to `N#C/C(=C\Nc1ccc(S(=O)(=O)Nc2nccs2)cc1)c1nc(-c2ccc(Cl)cc2)cs1`, the IC50 was 4.1 µM.

Take `Cc1ccccc1-n1c(O)c(C=C2C=CC=N2)c(=O)[nH]c1=S`: the IC50 is 10.2 µM.

With `Cc1ccc(C)n1-c1ccc(Br)cc1C(=O)O`, the IC50 is 32 µM.

`Cc1cc(-c2ccc(C=C3C(=O)NC(=S)NC3=O)o2)c([N+](=O)[O-])cc1C`: the IC50 is 3 µM.

On to `COC(=O)c1c(N)sc(C(=O)Nc2ccc(OC)cc2)c1C`, for which the IC50 was 6.6 µM.

For the compound `CCOc1ccc(C(=O)Nc2ccc3c(c2)C(=O)c2ccccc2C3=O)cc1`, the IC50 was 8 µM.

On to `COc1ccccc1N=C(NOCc1ccc(Cl)cc1Cl)c1nonc1N`, for which the IC50 was 1.7 µM.

Turning to `Oc1ccc(/C=N/Nc2nncc(-c3ccccc3)n2)c(O)c1O`, the IC50 is 6.8 µM.

`NC(=O)c1c(N)sc2c1CCCCC2`: the IC50 is 2 µM.

Turning to `O=C1C=C/C(=N\S(=O)(=O)c2cc(Cl)ccc2Cl)C=C1Cl`, the IC50 was 2 µM.

As to `Cc1cc(Cl)ccc1OCC(=O)Nc1sc(C)c(C)c1C(N)=O`, the IC50 was 10.7 µM.

Take `O=C(O)c1cc(-c2ccc(/C=C3/Sc4ccccc4C3=O)o2)ccc1O`: the IC50 was 3.3 µM.

For the compound `O=C1c2ccccc2C(=O)N1c1ccc(-c2nc3ccc(N4C(=O)c5ccccc5C4=O)cc3[nH]2)cc1`, the IC50 was 4 µM.

As for `Cc1sc(NC(=O)c2ccc3c(c2)OCO3)c(C(N)=O)c1C`, the IC50 entry was “inactive”.

With `CCOc1ccc(N2C(=O)/C(=C/c3ccc(I)o3)C(=O)NC2=S)cc1`, the IC50 was 4.8 µM.

Consider `Cc1cc(C(=O)O)ccc1-n1c(C)ccc1C`, for which the IC50 was 100 µM.

As to `N#Cc1c(N)nc(SCC(=O)c2ccc(O)c(O)c2)c(C#N)c1-c1ccc(O)cc1`, the IC50 is 0.9 µM.

Regarding `C=CCn1c(N)c(-c2nc3ccccc3[nH]2)sc1=S`, the IC50 is 2.8 µM.

For `O=C1C=CC(=O)C(c2cccc(Cl)c2)=C1`, the IC50 was 2.3 µM.

`O=C1NC(=S)N(c2ccccc2F)C(=O)C1=Cc1ccco1`: the IC50 is 2.2 µM.

In the case of `Cc1sc(NC(=O)C2CCCO2)c(C(N)=O)c1C` (centres undefined), the IC50 was 3 µM.

On to `O=C1NC(=S)N(c2ccccc2F)C(=O)/C1=C/c1ccc(OCc2cccc(C(=O)O)c2)cc1`, for which the IC50 is 9 µM.

For the compound `CCOc1ccc(C2=CC(=O)C=CC2=O)cc1`, the IC50 was 0.9 µM.

Consider `Cc1onc(-c2ccccc2)c1C(=O)Nc1sc(C)c(C)c1C(N)=O`, for which the IC50 entry was “inactive”.

Turning to `COc1cc(C=O)ccc1OCCCOc1cccc(Oc2ccccc2)c1`, the IC50 was 100 µM.

On to `O=C1/C(=C/c2ccc(O)c(O)c2)SC(=S)N1c1ccc(O)cc1`, for which the IC50 was 3.5 µM.

On to `CCN1C(=O)/C(=C/c2ccoc2)C(=O)NC1=S`, for which the IC50 is 40 µM.

As to `Cc1ccc(-c2n[nH]c(=S)n2/N=C/c2ccc(O)c(O)c2O)cc1`, the IC50 is 1.8 µM.

For the compound `COc1ccc(N2C(=O)/C(=C/c3ccc(I)o3)C(=O)NC2=S)cc1`, the IC50 is 3.7 µM.

Regarding `O=c1oc2ccccc2c(O)c1/C=C1\C=Nc2ccccc21`, the IC50 is 3.2 µM.

For the origin of these results see PubChem BioAssay AID372 (MTDP, 2006).
